Experimental data published in PubChem BioAssay (NCI).
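All cell lines were grown in 96-well plates and treated with compound for 48 hours. TGI: concentration producing complete growth inhibition.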

Experiments:
Assay in all cases: DTP human tumour cell line panel, 48 h
SK-MEL-5 melanoma = test system: SK-MEL-5 melanoma
EKVX NSCLC = test system: EKVX NSCLC
RXF 393 renal = test system: RXF 393 renal
HCT-15 colon = test system: HCT-15 colon
HOP-62 NSCLC = test system: HOP-62 NSCLC
SF-539 CNS = test system: SF-539 CNS
SK-MEL-28 melanoma = test system: SK-MEL-28 melanoma
NCI-H23 lung = test system: NCI-H23 lung
UO-31 renal = test system: UO-31 renal
MDA-N = test system: MDA-N

| Compound | TGI (SK-MEL-5 melanoma) [µM] | TGI (EKVX NSCLC) [µM] | TGI (RXF 393 renal) [µM] | TGI (HCT-15 colon) [µM] | TGI (HOP-62 NSCLC) [µM] | TGI (SF-539 CNS) [µM] | TGI (SK-MEL-28 melanoma) [µM] | TGI (NCI-H23 lung) [µM] | TGI (UO-31 renal) [µM] | TGI (MDA-N) [µM] |
| --- | --- | --- | --- | --- | --- | --- | --- | --- | --- | --- |
| CC(C)OC(=O)[C@@H](O)[C@H](CO)C1=CC([Si](C)(C)c2ccccc2)=CON1 | > 100 | > 100 | > 100 | > 100 | > 100 | > 100 | > 100 | > 100 | > 100 |  |
| CC(Cc1ccccc1)NC1=NCCO1 (stereo not drawn) | > 100 | > 100 | > 100 | > 100 | > 100 | 30.3 |  | 51 | 50.4 | 72.3 |
| CCOc1ccc2nc(NC(NC(=O)c3cccnc3)(C(F)(F)F)C(F)(F)F)sc2c1 | 49.2 | 79.4 | 61.1 | > 100 |  | > 100 | > 100 | 65.5 | > 100 | 42.9 |
| C=C1C(=O)O[C@@H]2[C@H](O)[C@@H](C)[C@@H]3C=CC(=O)[C@@]3(C)[C@H](OC(=O)C=C(C)C)[C@H]12 | 3.78 | 5.5 | 1.33 | 0.667 | 11.4 | 0.596 | 1.81 | 2.88 | 7.23 |  |
| NC1CC(=O)c2sccc21 (stereo not drawn) | > 100 | > 100 | > 100 | > 100 | > 100 | > 100 | > 100 | > 100 | > 100 |  |
| CCN(CC)C(=O)N1CN(c2ccccc2)C2(CCN(CCCSc3ccc(F)cc3)CC2)C1=O | 12.3 | 33.6 | 29.7 | 26.4 |  | 20.7 | 37.1 | 22.4 | 22.6 | 21.3 |
| c1ccc2c(c1)CC1COc3ccccc3C1O2 (stereo not drawn) | 37.9 | > 100 |  | > 100 | > 100 | > 100 |  | > 100 | > 100 | > 100 |
| O=c1c2ccccc2[nH]c2cc(O)cc(O)c12 | 85 |  | > 100 | > 100 |  | > 100 | > 100 | > 100 | > 100 |  |
| CC(=O)/C=C(\O)c1[nH]c(C(=O)O)cc1C1CCN(Cc2ccccc2)C1=O (stereo not drawn) | 42.9 | 60.6 | 30.2 | 38.4 | 32.8 |  | 43.8 | 35.3 | 38.5 | 33.8 |
| Cc1cc2nc(N3C(=O)/C(=C/c4ccc(Cl)cc4)N=C3c3ccccc3)sc2cc1C | 43.6 | 91.2 | 57.9 | > 100 | > 100 | > 100 | > 100 |  | > 100 | 30.3 |
| CCN(CC)CCCOc1cc2c(cc1OC)C(=O)N1CCC[C@H]1C=N2 | 63.7 | > 100 | 60 | > 100 | 92.1 | > 100 | 45.9 |  | > 100 |  |
| C(=C\c1cc(-c2ccc3ccccc3n2)nc2ccc3ccccc3c12)/c1ccc2ccccc2n1 | > 100 | > 100 | > 100 | > 100 | > 100 | > 100 | > 100 |  | > 100 | > 100 |
| CCOC(=O)CSc1[nH]c(NC(=S)Nc2ccccc2)c(C(N)=O)c1C(N)=O | > 10 | > 10 | > 10 | > 10 | > 10 |  | > 10 | > 10 |  | > 10 |
| O=C(OCc1ccccc1)N1CCN(C(=O)OCc2ccccc2)CCN(C(=O)OCc2ccccc2)CCN(C(=O)OCc2ccccc2)CCN(C(=O)OCc2ccccc2)CC1 | 33.3 | > 100 |  | > 100 | > 100 | > 100 | > 100 |  | > 100 | > 100 |
| O=C1CCCC2=C1CC1=C(CCCC1=O)N2c1ccccc1 | > 100 | > 100 | > 100 | > 100 |  | > 100 | > 100 | > 100 | > 100 |  |
| Oc1ccc(O)c(CNc2ccccc2)c1 | 33.9 | 43.4 | 19.5 | 42.2 |  | 15.2 | > 100 | 32.4 | 27 | 16.6 |
| Cc1ccc(C(=O)Nc2ccc(S(=O)(=O)O)c3cc(S(=O)(=O)O)cc(S(=O)(=O)O)c23)cc1NC(=O)c1cccc(NC(=O)Nc2cccc(C(=O)Nc3cc(C(=O)Nc4ccc(S(=O)(=O)O)c5cc(S(=O)(=O)O)cc(S(=O)(=O)O)c45)ccc3C)c2)c1 (tested in a mixture with another compound) | > 50 | > 50 | > 50 | > 50 |  | > 50 | > 50 | > 50 | > 50 | > 50 |
| c1ccc(N=C2SC3=NCCN3C2=Nc2ccccc2)cc1 | 28.9 |  | 32.2 | 61.4 | 52.9 |  | 35 | 52.9 | 26.4 | 41.2 |
| CCCCCCC(C)OC(=O)/C=C(\CC(=O)OC(C)CCCCCC)C(=O)OC(C)CCCCCC (stereo not drawn) | > 100 | > 100 | > 100 | > 100 | > 100 | > 100 | > 100 | > 100 | > 100 |  |
| N=c1c2c(=S)n(-c3ccccc3)c(=S)n(-c3ccccc3)c2nc(SCCN2CCOCC2)n1-c1ccccc1 | 6.66 | 9.58 | 3.55 | 4.09 | 4.96 | 8.83 | 4.39 | 7.02 |  | 4.99 |
| CSc1nc2c(=O)n(-c3ccccc3)c(=S)n(-c3ccccc3)c2s1 | > 100 |  | 94.4 | > 100 | > 100 | > 100 | > 100 | > 100 | > 100 | > 100 |
| COC(=O)[C@H](Cc1ccccc1)NP(=O)(O)OCC1C=CC(n2cc(C)c(=O)[nH]c2=O)O1 (stereo partly drawn) | > 100 | > 100 | > 100 | > 100 | > 100 |  |  | > 100 | > 100 |  |
